Experimental data taken from patent US20210254272A1, “TEXTILES HAVING ANTIMICROBIAL PROPERTIES” (Livinguard AG, priority 2015, published 2021).

Test: Leaching test: 100 g fabric soaked in 10 liters stagnant distilled water, 3 days (72 hours)
Type: physicochemical
Conditions: for Leaching of active ingredients: exhaust 80° C. 60 min, cured 180° C. 2 min, post wash
Protocol: The test procedure for leaching was as follows: 100 g (grams) of fabric as well as control fabrics were soaked in 10 liters of stagnant distilled water in a closed wide mouth jar. After 3 days (72 hours), the water samples were tested for leached substances as per standard analytical methods.
The test procedure for leaching was as follows: 100 g (grams) of fabric as well as control fabrics were soaked in 10 liters of stagnant distilled water in a closed wide mouth jar. After 3 days (72 hours), the water samples were tested for leached substances as per standard analytical methods. A weight of 100 g fabric was chosen because in the preferred embodiment of the water filter as described further below, each filter comprises a strip of fabric with 210 g/m^2, 3 meters long and 0.16 meters wide, which corresponds to 100 g of fabric.

Which results are given for Silver?
Leaching of active ingredients (in ppm) (0.2% each in mixture (o.w.f), exhaust 80° C., 60 min, curing 180° C., 2 min, unwashed): 7 ppm; Leaching of active ingredients (in ppm) (0.5% each in mixture (o.w.f), exhaust 80° C., 60 min, curing 180° C., 2 min, unwashed): 11 ppm; Leaching of active ingredients (in ppm) (1.0% each in mixture (o.w.f), exhaust 80° C., 60 min, curing 180° C., 2 min, unwashed): 18 ppm; Leeching in ppm (Exhaust + Wash + pad + Wash, exhaust 0.1% o.w.f. each in mixture, 1 gm/liter pad): 0.3 ppm; Leeching in ppm (Exhaust + Wash + pad + Wash, exhaust 0.1% o.w.f. each in mixture, 5 gm/liter pad): 0.5 ppm; Leeching in ppm (Exhaust + Wash + pad + Wash, exhaust 0.1% o.w.f. each in mixture, 10 gm/liter pad): 0.6 ppm; Leeching in ppm (Exhaust + Wash + pad + Wash, exhaust 0.25% o.w.f. each in mixture, 1 gm/liter pad): 3 ppm; Leeching in ppm (Exhaust + Wash + pad + Wash, exhaust 0.25% o.w.f. each in mixture, 5 gm/liter pad): 7 ppm; Leeching in ppm (Exhaust + Wash + pad + Wash, exhaust 0.25% o.w.f. each in mixture, 10 gm/liter pad): 16 ppm; Leeching in ppm (Exhaust + Wash + pad + Wash, exhaust 0.5 (% o.w.f) each in mixture, 1 gm/liter pad): 8 ppm; Leeching in ppm (Exhaust + Wash + pad + Wash, exhaust 0.5 (% o.w.f) each in mixture, 5 gm/liter pad): 14 ppm; Leeching in ppm (Exhaust + Wash + pad + Wash, exhaust 0.5 (% o.w.f) each in mixture, 10 gm/liter pad): 22 ppm; Leeching in ppm (Exhaust + Wash + pad + Wash, exhaust 1.0% o.w.f. each in mixture, 1 gm/liter pad): 14 ppm; Leeching in ppm (Exhaust + Wash + pad + Wash, exhaust 1.0% o.w.f. each in mixture, 5 gm/liter pad): 23 ppm; Leeching in ppm (Exhaust + Wash + pad + Wash, exhaust 1.0% o.w.f. each in mixture, 10 gm/liter pad): 28 ppm; Leeching in ppm (Exhaust + pad + Wash, exhaust 0.1% o.w.f. each in mixture, 1 gm/liter pad): 145 ppm; Leeching in ppm (Exhaust + pad + Wash, exhaust 0.1% o.w.f. each in mixture, 5 gm/liter pad): 235 ppm; Leeching in ppm (Exhaust + pad + Wash, exhaust 0.1% o.w.f. each in mixture, 10 gm/liter pad): 254 ppm; Leeching in ppm (Exhaust + pad + Wash, exhaust 0.25% o.w.f. each in mixture, 1 gm/liter pad): 223 ppm; Leeching in ppm (Exhaust + pad + Wash, exhaust 0.25% o.w.f. each in mixture, 5 gm/liter pad): 257 ppm; Leeching in ppm (Exhaust + pad + Wash, exhaust 0.25% o.w.f. each in mixture, 10 gm/liter pad): 534 ppm; Leeching in ppm (Exhaust + pad + Wash, exhaust 0.5 (% o.w.f) each in mixture, 1 gm/liter pad): 456 ppm; Leeching in ppm (Exhaust + pad + Wash, exhaust 0.5 (% o.w.f) each in mixture, 5 gm/liter pad): 573 ppm; Leeching in ppm (Exhaust + pad + Wash, exhaust 0.5 (% o.w.f) each in mixture, 10 gm/liter pad): 645 ppm; Leeching in ppm (Exhaust + pad + Wash, exhaust 1.0% o.w.f. each in mixture, 1 gm/liter pad): 534 ppm; Leeching in ppm (Exhaust + pad + Wash, exhaust 1.0% o.w.f. each in mixture, 5 gm/liter pad): 654 ppm; Leeching in ppm (Exhaust + pad + Wash, exhaust 1.0% o.w.f. each in mixture, 10 gm/liter pad): 849 ppm; Leeching in ppm (Exhaust + pad, exhaust 0.1% o.w.f. each in mixture, 1 gm/liter pad): 208 ppm; Leeching in ppm (Exhaust + pad, exhaust 0.1% o.w.f. each in mixture, 5 gm/liter pad): 298 ppm; Leeching in ppm (Exhaust + pad, exhaust 0.1% o.w.f. each in mixture, 10 gm/liter pad): 362 ppm; Leeching in ppm (Exhaust + pad, exhaust 0.25% o.w.f. each in mixture, 1 gm/liter pad): 320 ppm; Leeching in ppm (Exhaust + pad, exhaust 0.25% o.w.f. each in mixture, 5 gm/liter pad): 321 ppm; Leeching in ppm (Exhaust + pad, exhaust 0.25% o.w.f. each in mixture, 10 gm/liter pad): 387 ppm; Leeching in ppm (Exhaust + pad, exhaust 0.5 (% o.w.f) each in mixture, 1 gm/liter pad): 398 ppm; Leeching in ppm (Exhaust + pad, exhaust 0.5 (% o.w.f) each in mixture, 5 gm/liter pad): 453 ppm; Leeching in ppm (Exhaust + pad, exhaust 0.5 (% o.w.f) each in mixture, 10 gm/liter pad): 801 ppm; Leeching in ppm (Exhaust + pad, exhaust 1.0% o.w.f. each in mixture, 1 gm/liter pad): 595 ppm; Leeching in ppm (Exhaust + pad, exhaust 1.0% o.w.f. each in mixture, 5 gm/liter pad): 749 ppm; Leeching in ppm (Exhaust + pad, exhaust 1.0% o.w.f. each in mixture, 10 gm/liter pad): 1234 ppm; Leeching in ppm (Exhaust +Wash + pad, exhaust 0.1% o.w.f. each in mixture, 1 gm/liter pad): 86 ppm; Leeching in ppm (Exhaust +Wash + pad, exhaust 0.1% o.w.f. each in mixture, 5 gm/liter pad): 164 ppm; Leeching in ppm (Exhaust +Wash + pad, exhaust 0.1% o.w.f. each in mixture, 10 gm/liter pad): 254 ppm; Leeching in ppm (Exhaust +Wash + pad, exhaust 0.25% o.w.f. each in mixture, 1 gm/liter pad): 196 ppm; Leeching in ppm (Exhaust +Wash + pad, exhaust 0.25% o.w.f. each in mixture, 5 gm/liter pad): 212 ppm; Leeching in ppm (Exhaust +Wash + pad, exhaust 0.25% o.w.f. each in mixture, 10 gm/liter pad): 324 ppm; Leeching in ppm (Exhaust +Wash + pad, exhaust 0.5 (% o.w.f) each in mixture, 1 gm/liter pad): 375 ppm; Leeching in ppm (Exhaust +Wash + pad, exhaust 0.5 (% o.w.f) each in mixture, 5 gm/liter pad): 435 ppm; Leeching in ppm (Exhaust +Wash + pad, exhaust 0.5 (% o.w.f) each in mixture, 10 gm/liter pad): 578 ppm; Leeching in ppm (Exhaust +Wash + pad, exhaust 1.0% o.w.f. each in mixture, 1 gm/liter pad): 475 ppm; Leeching in ppm (Exhaust +Wash + pad, exhaust 1.0% o.w.f. each in mixture, 5 gm/liter pad): 546 ppm; Leeching in ppm (Exhaust +Wash + pad, exhaust 1.0% o.w.f. each in mixture, 10 gm/liter pad): 656 ppm; Leaching of active ingredients (in ppm) (exhaust 60° C., solution dosage 1% o.w.f, process time 60 min): 21 ppm; Leaching of active ingredients (in ppm) (exhaust 60° C., solution dosage 1% o.w.f, process time 90 min): 13 ppm; Leaching of active ingredients (in ppm) (exhaust 60° C., solution dosage 1% o.w.f, process time 120 min): 13 ppm; Leaching of active ingredients (in ppm) (exhaust 60° C., solution dosage 1% o.w.f, process time 180 min): 12 ppm; Leaching of active ingredients (in ppm) (exhaust 60° C., solution dosage 1% o.w.f, process time 240 min): 15 ppm; Leaching of active ingredients (mixture 0.2% o.w.f. each): 0.3 ppm; Leaching of active ingredients (mixture 0.5% o.w.f. each): 0.5 ppm; Leaching of active ingredients (mixture 1% o.w.f. each): 0.9 ppm; Leaching of active ingredients (in ppm) (exhaust 80° C., 1% o.w.f, 60 min, curing 170° C., curing dwell time 0.5 min): 28 ppm; Leaching of active ingredients (in ppm) (exhaust 80° C., 1% o.w.f, 60 min, curing 170° C., curing dwell time 1.0 min): 24 ppm; Leaching of active ingredients (in ppm) (exhaust 80° C., 1% o.w.f, 60 min, curing 170° C., curing dwell time 1.5 min): 21 ppm; Leaching of active ingredients (in ppm) (exhaust 80° C., 1% o.w.f, 60 min, curing 170° C., curing dwell time 2.0 min): 13 ppm; Leaching of active ingredients (in ppm) (exhaust 80° C., 1% o.w.f, 60 min, curing 170° C., curing dwell time 2.5 min): 19 ppm; Leaching of active ingredients (in ppm) (exhaust 80° C., 1% o.w.f, 60 min, curing 170° C., curing dwell time 3.0 min): 19 ppm; Leaching of active ingredients (in ppm) (exhaust 80° C., 1% o.w.f, 60 min, curing 180° C., curing dwell time 0.5 min): 21 ppm; Leaching of active ingredients (in ppm) (exhaust 80° C., 1% o.w.f, 60 min, curing 180° C., curing dwell time 1.0 min): 13 ppm; Leaching of active ingredients (in ppm) (exhaust 80° C., 1% o.w.f, 60 min, curing 180° C., curing dwell time 1.5 min): 13 ppm; Leaching of active ingredients (in ppm) (exhaust 80° C., 1% o.w.f, 60 min, curing 180° C., curing dwell time 2.0 min): 4 ppm; Leaching of active ingredients (in ppm) (exhaust 80° C., 1% o.w.f, 60 min, curing 180° C., curing dwell time 2.5 min): 12 ppm; Leaching of active ingredients (in ppm) (exhaust 80° C., 1% o.w.f, 60 min, curing 180° C., curing dwell time 3.0 min): 12 ppm; Leaching of active ingredients (in ppm) (exhaust 80° C., 1% o.w.f, 60 min, curing dwell time at 190° C. (title): 0.5 min): 18 ppm; Leaching of active ingredients (in ppm) (exhaust 80° C., 1% o.w.f, 60 min, curing dwell time at 190° C. (title): 1.0 min): 12 ppm; Leaching of active ingredients (in ppm) (exhaust 80° C., 1% o.w.f, 60 min, curing dwell time at 190° C. (title): 1.5 min): 10 ppm; Leaching of active ingredients (in ppm) (exhaust 80° C., 1% o.w.f, 60 min, curing dwell time at 190° C. (title): 2.0 min): 10 ppm; Leaching of active ingredients (in ppm) (exhaust 80° C., 1% o.w.f, 60 min, curing dwell time at 190° C. (title): 2.5 min): 24 ppm; Leaching of active ingredients (in ppm) (exhaust 80° C., 1% o.w.f, 60 min, curing dwell time at 190° C. (title): 3.0 min): 35 ppm
